# Experimental data: publication PMC11864979, “First-in-class ultralong-target-residence-time p38α inhibitors as a mitosis-targeted therapy for colorectal cancer” (Nature Cancer, 2025)
# Read-outs that look alike come from different tables or passages of the source.
# Experiments:
# Assay in all cases: selectivity profiling in a panel of 340 wild-type kinases (Reaction Biology Europe)
# Format in all cases: binding
# [1] = target: T1, 340 wild-type kinases (Homo sapiens, UniProt Q9UM73)
# T1 construct: purchased Reaction Biology Europe
# [2] = target: T2, 340 wild-type kinases (Homo sapiens, UniProt O96017)
# T2 construct: purchased Reaction Biology Europe
# [3] = target: T3, 340 wild-type kinases (Homo sapiens, UniProt Q9H2X6)
# T3 construct: purchased Reaction Biology Europe
# [4] = target: T4, 340 wild-type kinases (Homo sapiens, UniProt P51957)
# T4 construct: purchased Reaction Biology Europe
# [5] = target: T5, 340 wild-type kinases (Homo sapiens, UniProt Q9Y5S2)
# T5 construct: purchased Reaction Biology Europe
# [6] = target: T6, 340 wild-type kinases (Homo sapiens, UniProt Q9P289)
# T6 construct: purchased Reaction Biology Europe
# [7] = target: T7, 340 wild-type kinases (Homo sapiens, UniProt Q13464)
# T7 construct: purchased Reaction Biology Europe
# [8] = target: T8, 340 wild-type kinases (Homo sapiens, UniProt P48730)
# T8 construct: purchased Reaction Biology Europe
# [9] = target: T9, 340 wild-type kinases (Homo sapiens, UniProt Q9H3Y6)
# T9 construct: purchased Reaction Biology Europe
# [10] = target: T10, 340 wild-type kinases (Homo sapiens, UniProt Q15349)
# T10 construct: purchased Reaction Biology Europe
# [11] = target: T11, 340 wild-type kinases (Homo sapiens, UniProt P15056)
# T11 construct: purchased Reaction Biology Europe
# [12] = target: T12, 340 wild-type kinases (Homo sapiens, UniProt O94806)
# T12 construct: purchased Reaction Biology Europe
# T12 sequence (O94806 1-890): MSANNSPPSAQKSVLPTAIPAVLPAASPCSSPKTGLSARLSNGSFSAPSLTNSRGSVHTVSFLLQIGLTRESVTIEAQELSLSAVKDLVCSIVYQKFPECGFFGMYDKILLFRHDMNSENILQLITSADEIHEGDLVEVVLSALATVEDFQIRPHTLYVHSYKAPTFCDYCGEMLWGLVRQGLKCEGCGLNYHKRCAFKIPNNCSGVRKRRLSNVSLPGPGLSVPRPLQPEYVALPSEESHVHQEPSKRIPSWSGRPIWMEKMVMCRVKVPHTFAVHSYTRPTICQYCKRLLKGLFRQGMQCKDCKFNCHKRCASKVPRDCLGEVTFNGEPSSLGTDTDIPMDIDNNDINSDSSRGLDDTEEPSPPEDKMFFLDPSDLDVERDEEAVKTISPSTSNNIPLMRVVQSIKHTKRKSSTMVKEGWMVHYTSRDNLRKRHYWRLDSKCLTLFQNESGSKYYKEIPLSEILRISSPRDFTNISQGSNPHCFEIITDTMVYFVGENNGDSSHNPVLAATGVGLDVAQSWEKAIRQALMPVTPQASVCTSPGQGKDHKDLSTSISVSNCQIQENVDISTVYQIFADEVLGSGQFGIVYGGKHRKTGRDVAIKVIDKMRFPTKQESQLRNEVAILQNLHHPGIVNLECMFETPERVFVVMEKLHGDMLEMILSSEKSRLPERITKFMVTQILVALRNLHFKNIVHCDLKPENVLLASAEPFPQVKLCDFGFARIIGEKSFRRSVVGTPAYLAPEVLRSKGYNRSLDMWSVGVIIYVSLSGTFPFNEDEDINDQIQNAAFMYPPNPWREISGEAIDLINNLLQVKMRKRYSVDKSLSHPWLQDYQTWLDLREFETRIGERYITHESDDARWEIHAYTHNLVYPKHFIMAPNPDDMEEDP
# T11 sequence (P15056 whole entry): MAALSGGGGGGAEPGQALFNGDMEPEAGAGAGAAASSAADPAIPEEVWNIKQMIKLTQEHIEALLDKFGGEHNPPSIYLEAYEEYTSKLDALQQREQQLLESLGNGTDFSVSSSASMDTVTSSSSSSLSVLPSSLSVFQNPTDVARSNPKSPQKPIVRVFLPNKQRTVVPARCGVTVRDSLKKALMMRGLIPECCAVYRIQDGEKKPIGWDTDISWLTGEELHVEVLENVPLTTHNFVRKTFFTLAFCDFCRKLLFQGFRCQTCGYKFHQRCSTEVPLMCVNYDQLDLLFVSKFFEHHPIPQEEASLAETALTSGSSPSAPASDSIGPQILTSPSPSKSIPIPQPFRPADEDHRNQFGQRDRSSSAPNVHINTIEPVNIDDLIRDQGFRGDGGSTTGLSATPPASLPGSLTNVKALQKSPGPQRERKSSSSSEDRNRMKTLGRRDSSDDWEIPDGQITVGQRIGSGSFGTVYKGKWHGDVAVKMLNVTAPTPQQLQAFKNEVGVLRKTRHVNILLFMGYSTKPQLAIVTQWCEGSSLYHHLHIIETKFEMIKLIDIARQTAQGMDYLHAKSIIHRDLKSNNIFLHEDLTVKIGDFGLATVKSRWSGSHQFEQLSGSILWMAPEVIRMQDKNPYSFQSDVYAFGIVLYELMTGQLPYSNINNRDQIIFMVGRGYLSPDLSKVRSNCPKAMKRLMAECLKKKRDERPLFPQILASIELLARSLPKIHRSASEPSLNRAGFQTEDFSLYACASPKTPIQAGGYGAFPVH
# T8 sequence (P48730 whole entry): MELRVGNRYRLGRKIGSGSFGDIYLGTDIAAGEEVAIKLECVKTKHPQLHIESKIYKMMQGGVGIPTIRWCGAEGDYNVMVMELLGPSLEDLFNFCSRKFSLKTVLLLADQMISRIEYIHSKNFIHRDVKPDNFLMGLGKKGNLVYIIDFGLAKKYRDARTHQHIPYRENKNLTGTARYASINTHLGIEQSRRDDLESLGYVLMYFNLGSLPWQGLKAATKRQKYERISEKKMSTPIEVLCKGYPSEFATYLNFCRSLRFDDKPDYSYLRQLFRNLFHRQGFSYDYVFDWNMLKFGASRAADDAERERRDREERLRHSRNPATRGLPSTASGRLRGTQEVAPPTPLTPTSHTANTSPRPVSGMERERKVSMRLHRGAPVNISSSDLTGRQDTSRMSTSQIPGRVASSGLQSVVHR
# T9 sequence (Q9H3Y6 whole entry): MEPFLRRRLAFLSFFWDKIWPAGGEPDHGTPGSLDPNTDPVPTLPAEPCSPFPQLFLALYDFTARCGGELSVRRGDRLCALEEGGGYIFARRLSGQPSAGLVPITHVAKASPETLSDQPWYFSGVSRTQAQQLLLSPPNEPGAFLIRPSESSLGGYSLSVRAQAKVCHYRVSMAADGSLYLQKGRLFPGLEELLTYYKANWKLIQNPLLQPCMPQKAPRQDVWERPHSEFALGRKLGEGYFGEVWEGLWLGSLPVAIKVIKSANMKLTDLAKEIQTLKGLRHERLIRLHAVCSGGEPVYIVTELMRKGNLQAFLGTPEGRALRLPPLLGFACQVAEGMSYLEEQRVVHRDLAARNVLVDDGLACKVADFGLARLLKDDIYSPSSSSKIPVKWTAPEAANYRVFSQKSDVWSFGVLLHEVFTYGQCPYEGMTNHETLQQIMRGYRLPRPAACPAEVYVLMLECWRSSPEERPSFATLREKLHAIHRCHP
# T6 sequence (Q9P289 whole entry): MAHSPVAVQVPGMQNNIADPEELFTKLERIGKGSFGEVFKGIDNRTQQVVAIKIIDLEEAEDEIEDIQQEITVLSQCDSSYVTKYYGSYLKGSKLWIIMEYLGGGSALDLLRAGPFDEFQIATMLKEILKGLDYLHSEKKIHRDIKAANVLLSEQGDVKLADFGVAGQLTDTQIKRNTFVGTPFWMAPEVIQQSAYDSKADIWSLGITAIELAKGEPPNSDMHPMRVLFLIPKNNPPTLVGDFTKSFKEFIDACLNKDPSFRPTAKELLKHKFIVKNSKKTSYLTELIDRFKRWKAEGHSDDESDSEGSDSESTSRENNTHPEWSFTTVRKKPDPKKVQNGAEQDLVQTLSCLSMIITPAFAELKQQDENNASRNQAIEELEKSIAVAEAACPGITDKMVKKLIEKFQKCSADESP
# T5 sequence (Q9Y5S2 whole entry): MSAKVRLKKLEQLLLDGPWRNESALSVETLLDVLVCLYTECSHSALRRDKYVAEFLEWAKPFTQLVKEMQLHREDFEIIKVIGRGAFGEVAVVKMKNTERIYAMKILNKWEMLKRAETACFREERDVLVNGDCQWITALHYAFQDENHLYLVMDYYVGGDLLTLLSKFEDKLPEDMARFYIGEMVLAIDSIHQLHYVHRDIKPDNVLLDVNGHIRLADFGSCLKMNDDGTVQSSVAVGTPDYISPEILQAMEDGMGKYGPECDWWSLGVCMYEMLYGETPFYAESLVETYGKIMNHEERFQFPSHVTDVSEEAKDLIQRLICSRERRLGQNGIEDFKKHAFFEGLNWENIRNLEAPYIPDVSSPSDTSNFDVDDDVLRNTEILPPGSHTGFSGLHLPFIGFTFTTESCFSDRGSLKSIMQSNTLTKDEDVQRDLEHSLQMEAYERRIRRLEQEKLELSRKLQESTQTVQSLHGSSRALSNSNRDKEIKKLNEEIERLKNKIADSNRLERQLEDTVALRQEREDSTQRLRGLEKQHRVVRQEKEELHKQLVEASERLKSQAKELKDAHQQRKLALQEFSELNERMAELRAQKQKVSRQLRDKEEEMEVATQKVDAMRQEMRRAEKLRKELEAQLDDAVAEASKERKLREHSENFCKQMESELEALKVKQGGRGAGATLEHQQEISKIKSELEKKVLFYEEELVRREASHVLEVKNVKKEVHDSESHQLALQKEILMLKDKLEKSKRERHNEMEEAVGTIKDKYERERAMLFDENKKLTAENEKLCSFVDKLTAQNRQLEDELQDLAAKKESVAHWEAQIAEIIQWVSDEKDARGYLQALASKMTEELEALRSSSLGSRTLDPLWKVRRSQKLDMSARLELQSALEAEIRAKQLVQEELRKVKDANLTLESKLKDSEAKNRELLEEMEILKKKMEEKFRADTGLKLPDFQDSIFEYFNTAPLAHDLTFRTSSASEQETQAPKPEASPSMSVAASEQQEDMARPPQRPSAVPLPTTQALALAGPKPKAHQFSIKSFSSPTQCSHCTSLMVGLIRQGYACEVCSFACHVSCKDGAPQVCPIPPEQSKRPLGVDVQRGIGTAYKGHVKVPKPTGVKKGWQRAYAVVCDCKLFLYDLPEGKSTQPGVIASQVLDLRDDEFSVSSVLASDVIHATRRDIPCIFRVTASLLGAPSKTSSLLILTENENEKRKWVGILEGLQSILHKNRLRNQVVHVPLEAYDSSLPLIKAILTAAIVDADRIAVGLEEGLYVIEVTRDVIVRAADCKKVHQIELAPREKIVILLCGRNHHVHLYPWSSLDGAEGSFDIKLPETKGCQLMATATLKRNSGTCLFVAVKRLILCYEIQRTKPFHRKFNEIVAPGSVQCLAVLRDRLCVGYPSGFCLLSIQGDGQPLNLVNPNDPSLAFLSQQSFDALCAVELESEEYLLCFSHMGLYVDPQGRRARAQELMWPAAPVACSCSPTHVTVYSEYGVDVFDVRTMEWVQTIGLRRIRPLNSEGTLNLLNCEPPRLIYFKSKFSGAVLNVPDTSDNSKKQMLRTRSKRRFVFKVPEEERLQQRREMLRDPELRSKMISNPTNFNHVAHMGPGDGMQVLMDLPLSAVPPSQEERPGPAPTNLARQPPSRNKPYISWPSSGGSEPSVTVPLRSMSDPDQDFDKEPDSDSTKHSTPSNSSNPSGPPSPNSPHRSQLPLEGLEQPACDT
# T3 sequence (Q9H2X6 whole entry): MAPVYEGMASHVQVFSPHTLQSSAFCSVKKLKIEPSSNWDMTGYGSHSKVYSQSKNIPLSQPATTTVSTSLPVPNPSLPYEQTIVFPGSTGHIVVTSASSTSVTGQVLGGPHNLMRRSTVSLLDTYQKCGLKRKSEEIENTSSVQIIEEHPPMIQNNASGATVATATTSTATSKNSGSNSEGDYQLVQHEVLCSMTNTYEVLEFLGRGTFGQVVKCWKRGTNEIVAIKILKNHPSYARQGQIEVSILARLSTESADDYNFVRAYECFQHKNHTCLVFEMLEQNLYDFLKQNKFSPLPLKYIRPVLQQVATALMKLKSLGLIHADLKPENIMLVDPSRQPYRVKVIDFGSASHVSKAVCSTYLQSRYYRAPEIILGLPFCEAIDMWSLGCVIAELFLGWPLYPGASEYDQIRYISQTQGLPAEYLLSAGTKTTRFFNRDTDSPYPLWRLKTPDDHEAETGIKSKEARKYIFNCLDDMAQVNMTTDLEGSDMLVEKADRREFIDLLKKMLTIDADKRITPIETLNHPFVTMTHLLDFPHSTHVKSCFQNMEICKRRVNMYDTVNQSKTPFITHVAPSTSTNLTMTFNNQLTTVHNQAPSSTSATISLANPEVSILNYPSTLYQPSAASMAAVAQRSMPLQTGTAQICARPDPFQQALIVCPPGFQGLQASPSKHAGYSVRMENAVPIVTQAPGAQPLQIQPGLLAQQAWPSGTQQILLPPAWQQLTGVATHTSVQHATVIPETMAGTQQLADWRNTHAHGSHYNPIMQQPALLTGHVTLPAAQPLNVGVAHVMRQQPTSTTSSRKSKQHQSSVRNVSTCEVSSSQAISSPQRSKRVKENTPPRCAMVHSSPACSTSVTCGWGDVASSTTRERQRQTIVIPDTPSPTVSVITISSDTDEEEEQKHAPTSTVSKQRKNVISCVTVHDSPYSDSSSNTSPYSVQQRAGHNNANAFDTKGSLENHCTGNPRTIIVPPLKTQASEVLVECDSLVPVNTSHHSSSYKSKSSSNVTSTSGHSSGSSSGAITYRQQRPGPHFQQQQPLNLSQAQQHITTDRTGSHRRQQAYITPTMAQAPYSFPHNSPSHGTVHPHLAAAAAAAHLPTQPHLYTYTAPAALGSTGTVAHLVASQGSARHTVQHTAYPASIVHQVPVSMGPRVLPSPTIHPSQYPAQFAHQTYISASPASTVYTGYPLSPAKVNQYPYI
smiles,measurement,setting,value
CNC(=O)c1ccc2c(c1)C(=O)c1ccc(Nc3ccc(F)c(NC(=O)C4CC4)c3)cc1CC2 [Compound 2015],remaining activity at 0.2 µM,"[1]; 0.2 µM 2015, read-out: ALK residual activity",95.3%
same,remaining activity at 1 µM,"[1]; 1 µM 2015, read-out: ALK residual activity",86.8%
same,remaining activity at 0.2 µM,"[1]; ALK, 0.2 µM, read-out: residual activity",95.3%
same,remaining activity at 1 µM,"[1]; ALK, 1 µM, read-out: residual activity",86.8%
same,remaining activity at 0.2 µM,"[2]; 0.2 µM 2015, read-out: CHK2 residual activity",102%
same,remaining activity at 1 µM,"[2]; 1 µM 2015, read-out: CHK2 residual activity",94.9%
same,remaining activity at 0.2 µM,"[2]; CHK2, 0.2 µM, read-out: residual activity",102%
same,remaining activity at 1 µM,"[2]; CHK2, 1 µM, read-out: residual activity",94.9%
same,remaining activity at 0.2 µM,"[3]; 0.2 µM 2015, read-out: HIPK2 residual activity",93.7%
same,remaining activity at 1 µM,"[3]; 1 µM 2015, read-out: HIPK2 residual activity",97.9%
same,remaining activity at 0.2 µM,"[3]; HIPK2, 0.2 µM, read-out: residual activity",93.7%
same,remaining activity at 1 µM,"[3]; HIPK2, 1 µM, read-out: residual activity",97.9%
same,remaining activity at 0.2 µM,"[4]; 0.2 µM 2015, read-out: NEK4 residual activity",105%
same,remaining activity at 1 µM,"[4]; 1 µM 2015, read-out: NEK4 residual activity",101%
same,remaining activity at 0.2 µM,"[4]; NEK4, 0.2 µM, read-out: residual activity",105%
same,remaining activity at 1 µM,"[4]; NEK4, 1 µM, read-out: residual activity",101%
same,remaining activity at 0.2 µM,"[5]; 0.2 µM 2015, read-out: CDC42BPB residual activity",101%
same,remaining activity at 1 µM,"[5]; 1 µM 2015, read-out: CDC42BPB residual activity",93.2%
same,remaining activity at 0.2 µM,"[5]; CDC42BPB, 0.2 µM, read-out: residual activity",101%
same,remaining activity at 1 µM,"[5]; CDC42BPB, 1 µM, read-out: residual activity",93.2%
same,remaining activity at 0.2 µM,"[6]; 0.2 µM 2015, read-out: MST4 residual activity",78.4%
same,remaining activity at 1 µM,"[6]; 1 µM 2015, read-out: MST4 residual activity",69.9%
same,remaining activity at 0.2 µM,"[6]; MST4, 0.2 µM, read-out: residual activity",78.3%
same,remaining activity at 1 µM,"[6]; MST4, 1 µM, read-out: residual activity",69.9%
same,remaining activity at 0.2 µM,"[7]; 0.2 µM 2015, read-out: ROCK1 residual activity",95.1%
same,remaining activity at 1 µM,"[7]; 1 µM 2015, read-out: ROCK1 residual activity",87.2%
same,remaining activity at 0.2 µM,"[7]; ROCK1, 0.2 µM, read-out: residual activity",95.1%
same,remaining activity at 1 µM,"[7]; ROCK1, 1 µM, read-out: residual activity",87.2%
same,remaining activity at 0.2 µM,"[8]; 0.2 µM 2015, read-out: CK1delta residual activity",117%
same,remaining activity at 1 µM,"[8]; 1 µM 2015, read-out: CK1delta residual activity",111%
same,remaining activity at 0.2 µM,"[8]; CK1delta, 0.2 µM, read-out: residual activity",117%
same,remaining activity at 1 µM,"[8]; CK1delta, 1 µM, read-out: residual activity",111%
same,remaining activity at 0.2 µM,"[9]; 0.2 µM 2015, read-out: SRMS residual activity",96.9%
same,remaining activity at 1 µM,"[9]; 1 µM 2015, read-out: SRMS residual activity",98.5%
same,remaining activity at 0.2 µM,"[9]; SRMS, 0.2 µM, read-out: residual activity",96.9%
same,remaining activity at 1 µM,"[9]; SRMS, 1 µM, read-out: residual activity",98.5%
same,remaining activity at 0.2 µM,"[10]; 0.2 µM 2015, read-out: RPS6KA2 residual activity",84.7%
same,remaining activity at 1 µM,"[10]; 1 µM 2015, read-out: RPS6KA2 residual activity",91%
same,remaining activity at 0.2 µM,"[10]; RPS6KA2, 0.2 µM, read-out: residual activity",84.7%
same,remaining activity at 1 µM,"[10]; RPS6KA2, 1 µM, read-out: residual activity",91%
same,remaining activity at 0.2 µM,"[11]; 0.2 µM 2015, read-out: BRAF residual activity",93.9%
same,remaining activity at 1 µM,"[11]; 1 µM 2015, read-out: BRAF residual activity",104%
same,remaining activity at 0.2 µM,"[11]; BRAF, 0.2 µM, read-out: residual activity",94%
same,remaining activity at 1 µM,"[11]; BRAF, 1 µM, read-out: residual activity",104%
same,remaining activity at 0.2 µM,"[12]; 0.2 µM 2015, read-out: PKCnu residual activity",88.9%
same,remaining activity at 1 µM,"[12]; 1 µM 2015, read-out: PKCnu residual activity",96.9%
same,remaining activity at 0.2 µM,"[12]; PKCnu, 0.2 µM, read-out: residual activity",88.9%
same,remaining activity at 1 µM,"[12]; PKCnu, 1 µM, read-out: residual activity",96.9%
